The nature of data set [1]: Antiradical activity, acellular DPPH model. Conditions: DPPH 30 minutes, absorbance 520 nm. The protocol:
The antiradical activity of the derivatives derived from the syntheses described above was evaluated in an in vitro acellular model using DPPH.
1,1-Diphenyl 2-picryihydrazyl, on account of its paramagnetic structure, can accept an electron or a hydrogen radical to become a stable diamagnetic molecule. This free radical, which is purple coloured in ethanol, has a strong absorption band at 520 nm.
The addition of a compound that provides electrons results in a decolorization of the 1,1-diphenyl 2-picrylhydrazyl that is proportional to the number of electrons taken up by the radical, which may be monitored by measuring the absorbance at 520 nm.
DPPH is incubated for 30 minutes in the presence of the derivatives described above, tested at a concentration of 10^−5M, or alone for the control. At the end of the incubation, the antiradical activity of the above derivatives is evaluated by measuring the absorbance of the solution at 520 nm.
The antiradical activity of each test product is calculated according to the formula, as a percentage: 100−((OD520 in the presence of the test compound/OD520 in the absence of compound)×100)

The next data set deals with guinea pigs. Put plainly: Skin sensitization potential in guinea pigs (Magnusson and Kligmann maximization test). Conditions: 10% in a 0.5% xanthan gel. It counts as in vivo. From the text: The preparations described are subjected to the maximization test described by Magnusson and Kligmann, which protocol is in accordance with the OCDE guideline No. 406.
The test system of a further data set is fungal tyrosinase. Put plainly: In vitro test of inhibition of isolated fungal tyrosinase (L-dopa, dopachrome OD 490 nm). It counts as biochemical. Conditions: 490 nm. The text has this:
Tyrosinase catalyses the formation of L-dopaquinone and then of dopachrome from L-dopa. Now, dopachrome is a coloured compound that may be quantified by visible spectrophotometry at 490 nm. The use of an active agent capable of modifying the enzymatic activity will be reflected by a variation in the optical density at 490 nm. The to ratio of the rates of formation of dopachrome makes it possible to determine precisely the activations or inhibitions obtained with the various test molecules.
The sample to be tested is incubated in the presence of fungal tyrosinase (Sigma), for 5 minutes with stirring. L-Dopa (Sigma), a tyrosinase substrate, is incubated for 10 minutes in the absence of light, in the presence or absence of the test molecules. The calculation of the percentage of inhibition is performed by relating the test OD to the OD of the negative control without molecule.
In the context of this in vitro test, the p-coumaric acid derivatives were tested at final concentrations of 10^−4M and 10^−5M.

The target in another data set is T1, Human tyrosinase (Homo sapiens, UniProt P14679).
T1 construct: endogenous in cells; host or cells: normal human melanocytes (abdominal surgery; several donors of fair, brown and black phototypes)
T1 sequence (P14679 19-529): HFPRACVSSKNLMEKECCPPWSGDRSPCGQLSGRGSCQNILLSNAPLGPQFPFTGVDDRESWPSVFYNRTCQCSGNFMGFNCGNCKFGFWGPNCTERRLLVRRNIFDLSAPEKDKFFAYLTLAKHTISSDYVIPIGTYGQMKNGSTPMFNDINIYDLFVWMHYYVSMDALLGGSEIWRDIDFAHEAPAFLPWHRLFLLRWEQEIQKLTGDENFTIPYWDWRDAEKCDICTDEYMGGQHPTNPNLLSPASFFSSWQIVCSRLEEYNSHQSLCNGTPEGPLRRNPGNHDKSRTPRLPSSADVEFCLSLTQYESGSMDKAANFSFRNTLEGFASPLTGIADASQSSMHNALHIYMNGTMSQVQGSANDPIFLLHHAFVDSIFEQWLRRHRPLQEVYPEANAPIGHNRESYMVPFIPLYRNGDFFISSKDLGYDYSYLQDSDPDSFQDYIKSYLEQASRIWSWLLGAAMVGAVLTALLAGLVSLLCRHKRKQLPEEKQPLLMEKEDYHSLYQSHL
Put plainly: Inhibition of human tyrosinase after 24 h application to normal human melanocytes in monolayer. Type of data set: cell-based. Conditions: for inhibition at 1000 µM: 10^−3 M. The protocol: Normal human melanocytes (obtained from abdominal surgery) are seeded in 24-well plates at a rate of 80 000 cells per well. They are cultured to confluence and the active agents are applied for 24 hours to the culture media. After 24 hours, the media are removed and the melanocytes are detached via mechanical action. An extraction is performed via a thermal shock and the supernatants are then recovered and incubated with MBTH (Sigma) and L-dopa (Sigma). The OD at 490 nm is measured after 30 minutes, and the tyrosinase inhibition is calculated by relating the OD at 490 nm to the protein content (measured in each culture well) of the test relative to the ratio: OD 490 nm/protein concentration of the negative control (untreated control).
The compounds derived from the examples mentioned above were tested on melanocytes derived from various donors but of fair phototype, according to the protocol described in Example 29. The donors tested are as follows: • donor S (donor tested in Example 12): • donor 1: • donor 2: • donor 3
The compound derived from Example 1 is tested on cultures of melanocytes obtained from 2 donors of brown phototype and from one donor of black phototype. The protocol applied is that described in Example 29. […]

For the next data set, the system named is normal human melanocytes. Kind of data set: Cytotoxicity on normal human melanocytes, PNPP assay. It counts as cell-based. The note with it: 24 hours, relative to untreated wells. Here is the method: The cytotoxicity of the active agents is studied on normal human melanocytes in 24-well plates, via assay with PNPP (P-nitrophenyl phosphate), this substance being converted into p-nitrophenol via the intracellular acid phosphatases of viable cells. The absorbance of p-nitrophenol at 405 nm is directly proportional to the number of viable cells.
The active agents are tested at 2 different concentrations (10^−4 M and 10^−5 M) and added to the culture medium and incubated at 37° C. for 24 hours. The assay with PNPP is performed on the cell lawn and the results are expressed as a percentage of viability relative to the negative control (untreated wells).

The subject of another data set is eye of rabbits. Put plainly: Ocular irritation in rabbits. Type of data set: in vivo. The note with it: 10% in a 0.5% xanthan gel; pure, 0.1 ml single instillation, rabbit eye. The protocol:
The preparations described above were instilled pure, in a single application, at a rate of 0.1 ml, into the eye of 3 rabbits according to the method recommenced by the OCDE Directive No. 405 of 24 February 1987 concerning the study of the “acute irritant/corrosive effect on the eyes”.

Like-named read-outs stand apart in the source and are kept apart here.

As for `COc1cc(/C=C/C(=O)NCCc2ccc(O)c(O)c2)ccc1O` [Example 1, N-trans-feruloyldopamine], the “Antiradical activity, Mean 10^−5 M” value in data set [1] stood at 60.01%. In the data set with guinea pigs, the Skin sensitization classification result is “not sensitizing on contact with the skin”. For the same molecule, in the data set with fungal tyrosinase (10^−4M), the “Inhibition of fungal tyrosinase, percentage of inhibition, Mean 10^−4M” value stood at 9.18%. For the same molecule, in the data set with fungal tyrosinase (10^−5M), the “Inhibition of fungal tyrosinase, percentage of inhibition, Mean 10^−5M” value worked out at 0%. Further, the inhibition at 100 µM came to 62.3% on Human tyrosinase (10^−4M, 24 hours, read-out: Inhibition of human tyrosinase after application to normal human melanocytes, percentage of inhibition, Mean 10^−4M); 65.8% at Human tyrosinase (B104, Donor B, brown phototype, 10^−4 M, read-out: Inhibition of tyrosinase, Mean Donor B, 10^−4 M); 63.9% at Human tyrosinase (Donor 1, fair phototype, 10^−4 M, read-out: Inhibition of tyrosinase, Mean 10^−4 M, Donor 1); 59.9% on Human tyrosinase (Donor 2, fair phototype, 10^−4 M, read-out: Inhibition of tyrosinase, Mean 10^−4 M, Donor 2); 50.2% on Human tyrosinase (Donor 3, fair phototype, 10^−4 M, read-out: Inhibition of tyrosinase, Mean 10^−4 M, Donor 3); 59.2% at Human tyrosinase (Donor A, brown phototype, 10^−4 M, read-out: Inhibition of tyrosinase, Mean Donor A, 10^−4 M). In addition, the inhibition at 100 µM on Human tyrosinase (Donor S, fair phototype, 10^−4 M, read-out: Inhibition of tyrosinase, Mean 10^−4 M, Donor S) was determined as 62.3%. The inhibition at 10 µM at Human tyrosinase (10^−5M, 24 hours, read-out: Inhibition of human tyrosinase after application to normal human melanocytes, percentage of inhibition, Mean 10^−5M) was found to be 29.4%; at Human tyrosinase (Donor 1, fair phototype, 10^−5 M, read-out: Inhibition of tyrosinase, Mean 10^−5 M, Donor 1), 35.8%; on Human tyrosinase (Donor 2, fair phototype, 10^−5 M, read-out: Inhibition of tyrosinase, Mean 10^−5 M, Donor 2), 12.9%; on Human tyrosinase (Donor 3, fair phototype, 10^−5 M, read-out: Inhibition of tyrosinase, Mean 10^−5 M, Donor 3), 18.9%; on Human tyrosinase (Donor A, brown phototype, 10^−5 M, read-out: Inhibition of tyrosinase, Mean Donor A, 10^−5 M) it was 29.3%; at Human tyrosinase (Donor B, brown phototype, 10^−5 M, read-out: Inhibition of tyrosinase, Mean Donor B, 10^−5 M), 20.8%. The inhibition at 10 µM at Human tyrosinase (Donor S, fair phototype, 10^−5 M, read-out: Inhibition of tyrosinase, Mean 10^−5 M, Donor S) stood at 29.4%. Moreover, the inhibition at 1000 µM at Human tyrosinase (B103, Donor B, brown phototype, read-out: Inhibition of tyrosinase, Mean Donor B, 10^−3 M) turned out to be 87.2%; at Human tyrosinase (Donor A, brown phototype, read-out: Inhibition of tyrosinase, Mean Donor A, 10^−3 M) it was 99.4%. Further, the “Percentages of viability, Mean 10^−4 M” value in the data set on normal human melanocytes (10^−4 M) is recorded as 94.49%. Moreover, the “Percentages of viability, Mean 10^−5 M” value in the data set on normal human melanocytes (10^−5 M) is listed as 119.83%. Moreover, the Ocular irritation classification result with eye of rabbits is recorded as “non-irritant to the eyes”.

The record behind these values is US9089499B2, “Para-coumaric acid or para-hydroxycinnamic acid derivatives and their use in cosmetic or dermatological compositions” (BASF Beauty Care Solutions France S.A.S., priority 2005, dated 2015).
